Here are results for 7 molecules from ChEMBL document CHEMBL1149922, “Novel tryptophan dioxygenase inhibitors and combined tryptophan dioxygenase/5-HT reuptake inhibitors” (Bioorg Med Chem Lett, 1996).

The target in test [1] is Tryptophan 2,3-dioxygenase (Rattus norvegicus, UniProt P21643). Kind of test: Compound was tested for inhibition of Tryptophan dioxygenase (TDO) from rat liver.
The species entered for test [2] is Rattus norvegicus. The test can be described thus: Inhibition of 5-HT reuptake in rat […] was measured. The format is functional, organism-based.

The structures appear in SMILES notation.

Chain of Tryptophan 2,3-dioxygenase (P21643 whole entry): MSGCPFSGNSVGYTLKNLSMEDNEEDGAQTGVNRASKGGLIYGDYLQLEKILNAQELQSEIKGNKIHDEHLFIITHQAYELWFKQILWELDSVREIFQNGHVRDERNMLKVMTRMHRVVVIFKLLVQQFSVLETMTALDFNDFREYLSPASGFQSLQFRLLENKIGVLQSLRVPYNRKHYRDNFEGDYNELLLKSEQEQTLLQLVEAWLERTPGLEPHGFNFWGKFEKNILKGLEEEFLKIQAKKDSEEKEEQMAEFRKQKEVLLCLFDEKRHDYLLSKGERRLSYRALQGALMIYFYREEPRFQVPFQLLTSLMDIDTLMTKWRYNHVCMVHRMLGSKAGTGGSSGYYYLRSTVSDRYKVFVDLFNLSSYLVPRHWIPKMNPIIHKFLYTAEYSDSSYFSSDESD

Regarding `C(=C\c1c[nH]c2ccccc12)/c1cccnc1`, in test [1], the affinity, expressed as Ki, was 40 nM.

Consider `Fc1ccc2[nH]cc(/C=C/c3cccnc3)c2c1`, for which, in test [1], the Ki was 50 nM.

Consider `Fc1ccc2[nH]cc(/C=C/c3ccncc3)c2c1`, for which the Ki in test [1] was determined as 40 nM.

As for `C(=C\c1c[nH]c2ccccc12)/c1ccccn1`, the Ki in test [1] amounted to 100 nM.

In test [1], `Fc1ccc2c(/C=C/c3ccncc3)c[nH]c2c1` gave a Ki of 30 nM. The molecule also displayed an IC50 in test [2] of 900 nM.

In test [1], `Fc1ccc2c(/C=C/c3cccnc3)c[nH]c2c1` showed a Ki of 30 nM.

For `C(=C\c1c[nH]c2ccccc12)/c1ccncc1`, in test [1], the affinity corresponds to a Ki of 30 nM. Also, the IC50 in test [2] was found to be 1500 nM.

The Ki is a measure of affinity in units of concentration, obtained from inhibition or displacement. For orientation: IC50 means the concentration that gives 50% inhibition. High values mean weaker potency, low ones greater potency.
